Experimental data taken from ChEMBL document CHEMBL4387711, “Discovery of niclosamide and its O-alkylamino-tethered derivatives as potent antibacterial agents against carbapenemase-producing and/or colistin resistant Enterobacteriaceae isolates” (2019).
Active and inactive are the calls of the source. No cut-off for these calls is given here.

Tests used:
[1] = test system: Klebsiella pneumoniae; assay: Antibacterial activity against colistin-susceptible OXA-48/CTX-M-15/carbapenemase-producing Klebsiella pneumoniae 28 assessed as inhibition of growth at 50 uM after 18 hrs; format: functional, organism-based
[2] = test system: Enterobacter cloacae; assay: Antibacterial activity against colistin-resistant Enterobacter cloacae 142 assessed as inhibition of growth at 50 uM after 18 hrs; format: functional, organism-based
[3] = test system: Escherichia coli; assay: Antibacterial activity against colistin-susceptible NDM1/KPC-producing Escherichia coli assessed as inhibition of growth at 50 uM after 18 hrs; format: functional, organism-based
[4] = test system: Enterobacter cloacae; assay: Antibacterial activity against colistin-resistant Enterobacter cloacae 32 assessed as inhibition of growth at 50 uM after 18 hrs; format: functional, organism-based
[5] = test system: Klebsiella pneumoniae; assay: Antibacterial activity against colistin-resistant OXA-48/CTX-M-15/carbapenemase-producing Klebsiella pneumoniae 29 assessed as inhibition of growth at 50 uM after 18 hrs; format: functional, organism-based
[6] = test system: Enterobacter cloacae; assay: Antibacterial activity against colistin-resistant Enterobacter cloacae 263 assessed as inhibition of growth at 50 uM after 18 hrs; format: functional, organism-based
[7] = test system: Klebsiella pneumoniae; assay: Antibacterial activity against colistin-susceptible VIM1/carbapenemase-producing Klebsiella pneumoniae 07 assessed as inhibition of growth at 50 uM after 18 hrs; format: functional, organism-based
[8] = test system: Enterobacter cloacae; assay: Antibacterial activity against colistin-resistant Enterobacter cloacae 297 assessed as inhibition of growth at 50 uM after 18 hrs; format: functional, organism-based
[9] = test system: Klebsiella pneumoniae; assay: Antibacterial activity against colistin-resistant VIM1/DHAI/carbapenemase-producing Klebsiella pneumoniae 21 assessed as inhibition of growth at 50 uM after 18 hrs; format: functional, organism-based
[10] = test system: Klebsiella pneumoniae; assay: Antibacterial activity against colistin-susceptible NDM-1/carbapenemase-producing Klebsiella pneumoniae assessed as inhibition of growth at 50 uM after 18 hrs; format: functional, organism-based
[11] = test system: Enterobacter cloacae; assay: Antibacterial activity against colistin-resistant Enterobacter cloacae 280 assessed as inhibition of growth at 50 uM after 18 hrs; format: functional, organism-based
[12] = test system: Klebsiella aerogenes; assay: Antibacterial activity against colistin-resistant Enterobacter aerogenes 3 assessed as inhibition of growth at 50 uM after 18 hrs; format: functional, organism-based
[13] = test system: Enterobacter cloacae; assay: Antibacterial activity against colistin-resistant Enterobacter cloacae 272 assessed as inhibition of growth at 50 uM after 18 hrs; format: functional, organism-based
[14] = test system: Klebsiella aerogenes; assay: Antibacterial activity against colistin-resistant Enterobacter aerogenes 53 assessed as inhibition of growth at 50 uM after 18 hrs; format: functional, organism-based
[15] = test system: Klebsiella pneumoniae; assay: Antibacterial activity against Klebsiella pneumoniae CECT-997 assessed as inhibition of growth at 50 uM after 18 hrs; format: functional, organism-based
[16] = test system: Enterobacter cloacae; assay: Antibacterial activity against colistin-resistant Enterobacter cloacae 190 assessed as inhibition of growth at 50 uM after 18 hrs; format: functional, organism-based
[17] = test system: Enterobacter cloacae; assay: Antibacterial activity against colistin-resistant Enterobacter cloacae 280 by broth microdilution method; format: functional
[18] = test system: Enterobacter cloacae; assay: Antibacterial activity against colistin-resistant Enterobacter cloacae 297 by broth microdilution method; format: functional
[19] = test system: Klebsiella pneumoniae; assay: Antibacterial activity against carbapenemase/Klebsiella pneumoniae CECT-997 by broth microdilution method; format: functional
[20] = test system: Escherichia coli; assay: Antibacterial activity against colistin-susceptible NDM1/KPC-producing Escherichia coli by broth microdilution method; format: functional
[21] = test system: Klebsiella pneumoniae; assay: Antibacterial activity against colistin-susceptible NDM-1/carbapenemase-producing Klebsiella pneumoniae by broth microdilution method; format: functional
[22] = test system: Klebsiella pneumoniae; assay: Antibacterial activity against colistin-susceptible OXA-48/CTX-M-15/carbapenemase-producing Klebsiella pneumoniae 28 by broth microdilution method; format: functional
[23] = test system: Escherichia coli; assay: Synergistic antibacterial activity against colistin-susceptible NDM1/KPC-producing Escherichia coli in presence of colistin by checkerboard assay; format: functional

SMILES | growth inhibition (GI) [1] | growth inhibition (GI) [2] | growth inhibition (GI) [3] | growth inhibition (GI) [4] | growth inhibition (GI) [5] | growth inhibition (GI) [6] | growth inhibition (GI) [7] | growth inhibition (GI) [8] | growth inhibition (GI) [9] | growth inhibition (GI) [10] | growth inhibition (GI) [11] | growth inhibition (GI) [12] | growth inhibition (GI) [13] | growth inhibition (GI) [14] | growth inhibition (GI) [15] | growth inhibition (GI) [16] | further results
O=C(Nc1ccc([N+](=O)[O-])cc1Cl)c1cc(Cl)ccc1OCCN1CCOCC1 | inactive | inactive | inactive | inactive | inactive | inactive | inactive | inactive | inactive | inactive | inactive | inactive | inactive | inactive | inactive | inactive | 
NCCOCCOc1ccc(Cl)cc1C(=O)Nc1ccc([N+](=O)[O-])cc1Cl | inactive | inactive | Active | inactive | inactive | inactive | inactive | Active | inactive | inactive | inactive | inactive | inactive | inactive | inactive | inactive | MIC [17]: inactive; MIC [18]: > 15 µg/mL; MIC [19]: inactive; MIC [20]: > 15 µg/mL; MIC [21]: inactive; MIC [22]: inactive
NCCOc1ccc(Cl)cc1C(=O)Nc1ccc([N+](=O)[O-])cc1Cl | inactive | inactive | inactive | inactive | inactive | inactive | inactive | inactive | inactive | inactive | inactive | inactive | inactive | inactive | inactive | inactive | 
NCCCOc1ccc(Cl)cc1C(=O)Nc1ccc([N+](=O)[O-])cc1Cl | inactive | inactive | inactive | inactive | inactive | inactive | inactive | inactive | inactive | inactive | inactive | inactive | inactive | inactive | inactive | inactive | 
CN1CCC(Oc2ccc(Cl)cc2C(=O)Nc2ccc([N+](=O)[O-])cc2Cl)CC1 | inactive | inactive | inactive | inactive | inactive | inactive | inactive | inactive | inactive | inactive | inactive | inactive | inactive | inactive | inactive | inactive | 
CC[C@H](N)COc1ccc(Cl)cc1C(=O)Nc1ccc([N+](=O)[O-])cc1Cl | inactive | inactive | Active | inactive | inactive | inactive | inactive | inactive | inactive | inactive | inactive | inactive | inactive | inactive | inactive | inactive | MIC [17]: inactive; MIC [18]: inactive; MIC [19]: inactive; MIC [20]: > 15 µg/mL; MIC [21]: inactive; fractional inhibitory concentration index (FICI) [23]: 0.5; MIC [22]: inactive
CN1CCN(CCOc2ccc(Cl)cc2C(=O)Nc2ccc([N+](=O)[O-])cc2Cl)CC1 | inactive | inactive | inactive | inactive | inactive | inactive | inactive | inactive | inactive | inactive | inactive | inactive | inactive | inactive | inactive | inactive | 
O=C(Nc1ccc([N+](=O)[O-])cc1Cl)c1cc(Cl)ccc1OC1CCNCC1 | inactive | inactive | inactive | inactive | inactive | inactive | inactive | inactive | inactive | inactive | inactive | inactive | inactive | inactive | inactive | inactive | 
CN(C)CCOc1ccc(Cl)cc1C(=O)Nc1ccc([N+](=O)[O-])cc1Cl | inactive | inactive | inactive | inactive | inactive | inactive | inactive | inactive | inactive | inactive | inactive | inactive | inactive | inactive | inactive | inactive | 
O=C(Nc1ccc([N+](=O)[O-])cc1Cl)c1cc(Cl)ccc1OCCN1CCNCC1 | inactive | inactive | inactive | inactive | inactive | inactive | inactive | inactive | inactive | inactive | inactive | inactive | inactive | inactive | inactive | inactive | 
O=C(Nc1ccc([N+](=O)[O-])cc1Cl)c1cc(Cl)ccc1OCCN1CCCCC1 | inactive | inactive | inactive | inactive | inactive | inactive | inactive | inactive | inactive | inactive | inactive | inactive | inactive | inactive | inactive | inactive | 
